Assay results reported in ChEMBL document CHEMBL5252645, “Hydroxylated cyclopamine analogues from Veratrum californicum and their hedgehog pathway inhibiting activity” (Bioorg Med Chem, 2023).

Legend:
[1] = Inhibition of Shh-induced hedgehog signalling pathway in mouse MEF cells expressing Gli-Luc reporter gene assessed as reduction in Gli1 transcription activity incubated for 24 hrs in presence of mouse shh stimulation by dual luciferase Assay; format: cell-based
[2] = Inhibition of Shh-induced hedgehog signalling pathway in mouse NIH/3T3 cells expressing Gli-Luc reporter gene assessed as reduction in Gli1 transcription activity incubated for 24 hrs in presence of mouse shh stimulation by dual luciferase Assay; format: cell-based; details: NIH3T3, 24 h

CC1=C2C[C@H]3[C@@H](CC=C4C[C@@H](O)CC[C@@]43C)[C@@H]2CC[C@]12O[C@@H]1[C@H](O)[C@H](C)CN[C@H]1[C@H]2C
IC50 [1]: 210 nM | IC50 [2]: 150 nM

C[C@@H]1CN[C@H]2[C@@H](C)[C@@]3(CC[C@@H]4C(=C3CO)C[C@H]3[C@H]4CC=C4C[C@@H](O)CC[C@@]43C)O[C@@H]2C1
IC50 [1]: 2800 nM | IC50 [2]: 2080 nM

CC1=C2C[C@H]3[C@@H](CC=C4C[C@@H](O)CC[C@@]43C)[C@@H]2CC[C@]12O[C@@H]1C[C@H](C)CN[C@H]1[C@H]2C [CYCLOPAMINE]
IC50 [1]: 110 nM | IC50 [2]: 270 nM
